Measurements as given in patent publication US7585895B2, “Therapeutic substituted cyclopentanes” (Allergan, Inc., priority 2005, dated 2009).

How the values were obtained:
EP4 receptors = molecular target: T1, EP4 receptors (Homo sapiens, UniProt P35408); assay: Radioligand binding, [3H]PGE2, EP4 (Ki); details: HEK-293 cells stably expressing EP4, [3H]PGE2
T1 construct: expressed in transfected cells; membrane pellet
Method in brief: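 Membranes from HEK-293 cells stably expressing human EP4 were incubated 60 min at 25 °C with 5 nM [3H]PGE2 and competitor in TME buffer pH 7.4, then filtered over GF/B. Non-specific binding defined with 10^−5 M unlabeled PGE2; duplicate points, at least three experiments.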

hFP = molecular target: T2, hFP (Homo sapiens, UniProt P43088); assay: FLIPR calcium signal, FP; type: cell-based; details: HEK-293(EBNA)
T2 construct: expressed in transfected cells
Method in brief: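 Stably transfected HEK-293(EBNA) cells loaded with 2 μM Fluo-4 AM in HBSS-HEPES pH 7.4, 37° C; peak fluorescence rise after compound addition (FLIPR, 488 nm excitation) expressed relative to buffer and standard agonist controls (PGE2 for EP subtypes, U-46619 for TP). Tested 10^−5 to 10^−11 M, duplicates, n≧3.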

hEP4/Gqs5 = molecular target: T3, hEP4/Gqs5 (Homo sapiens, UniProt P35408); assay: FLIPR calcium signal, EP4; type: cell-based; details: HEK-293(EBNA); for EC50: read-out: Ca2+ Signal-EC50 (nM) EP4
T3 construct: expressed in transfected cells
Method in brief: (§1)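 Stable HEK-293(EBNA) lines expressing recombinant human EP1, TP, or EP2/EP4 coupled via Gqs5; Fluo-4 AM loaded (2 μM, 45 min), HBSS-HEPES pH 7.4, 37° C. Peak FLIPR fluorescence expressed relative to buffer and standard agonist (PGE2 for EP receptors, U-46619 for TP); compounds at 10^−5 M or 10^−5–10^−11 M, duplicates, n≧3.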

hTP = molecular target: T4, hTP (Homo sapiens, UniProt P21731); assay: FLIPR calcium signal, TP; type: cell-based; details: HEK-293(EBNA)
T4 construct: expressed in transfected cells
T4 sequence (P21731 1-343): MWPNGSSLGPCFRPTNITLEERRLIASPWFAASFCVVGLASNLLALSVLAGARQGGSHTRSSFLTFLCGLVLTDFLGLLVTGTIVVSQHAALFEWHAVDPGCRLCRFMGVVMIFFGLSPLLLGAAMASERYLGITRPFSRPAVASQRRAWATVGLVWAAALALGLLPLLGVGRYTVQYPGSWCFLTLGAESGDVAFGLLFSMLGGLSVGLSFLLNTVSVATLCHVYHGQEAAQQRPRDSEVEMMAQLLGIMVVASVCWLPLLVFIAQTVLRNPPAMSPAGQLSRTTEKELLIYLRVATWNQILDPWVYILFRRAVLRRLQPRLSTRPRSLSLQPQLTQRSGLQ
Method in brief: as §1

EP2 = EP2 (Homo sapiens, UniProt P43116); assay: cAMP assay, HEK-EBNA cells expressing EP2; type: cell-based; parameters: expressed in transfected cells; host or cells: HEK-EBNA; details: value in parentheses in EP2 column, read-out: EP2 EC50 (nM), measurement of cAMP (data in parentheses)
Method in brief: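 HEK-EBNA cells expressing EP2 (10^4 cells per well) were stimulated for 30 min at room temperature with compound in HBSS containing 0.1% BSA, 0.5 mM IBMX and 5 mM HEPES, pH 7.4. Compounds ran in 16-point serial dilutions in triplicate. cAMP was detected by AlphaScreen competition between anti-cAMP acceptor beads and biotin-cAMP/streptavidin donor beads.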

T3 sequence (P35408 whole entry): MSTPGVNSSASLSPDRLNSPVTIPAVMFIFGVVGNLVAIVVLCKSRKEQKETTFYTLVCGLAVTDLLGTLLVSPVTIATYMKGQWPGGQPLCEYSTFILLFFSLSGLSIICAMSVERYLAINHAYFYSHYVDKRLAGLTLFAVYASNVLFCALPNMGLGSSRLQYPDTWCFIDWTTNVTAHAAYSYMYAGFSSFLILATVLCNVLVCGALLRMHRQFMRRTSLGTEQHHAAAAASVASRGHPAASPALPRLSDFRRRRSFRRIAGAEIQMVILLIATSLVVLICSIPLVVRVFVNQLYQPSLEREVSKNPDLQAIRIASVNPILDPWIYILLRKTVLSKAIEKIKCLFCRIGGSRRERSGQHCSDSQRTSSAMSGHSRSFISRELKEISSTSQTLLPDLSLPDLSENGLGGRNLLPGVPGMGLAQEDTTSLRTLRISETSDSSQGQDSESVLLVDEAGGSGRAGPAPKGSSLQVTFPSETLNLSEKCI
T1 sequence (P35408 whole entry): as above
T2 sequence (P43088 whole entry): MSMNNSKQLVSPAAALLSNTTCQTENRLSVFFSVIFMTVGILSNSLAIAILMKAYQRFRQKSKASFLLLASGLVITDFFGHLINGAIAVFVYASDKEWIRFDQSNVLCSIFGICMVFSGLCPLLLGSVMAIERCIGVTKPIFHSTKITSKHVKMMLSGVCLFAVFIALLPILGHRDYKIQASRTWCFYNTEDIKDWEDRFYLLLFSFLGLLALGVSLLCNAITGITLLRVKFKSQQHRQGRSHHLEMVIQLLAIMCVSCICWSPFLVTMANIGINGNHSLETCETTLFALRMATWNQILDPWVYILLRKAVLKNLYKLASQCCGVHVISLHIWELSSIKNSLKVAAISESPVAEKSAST
Sequence of EP2 (P43116 whole entry): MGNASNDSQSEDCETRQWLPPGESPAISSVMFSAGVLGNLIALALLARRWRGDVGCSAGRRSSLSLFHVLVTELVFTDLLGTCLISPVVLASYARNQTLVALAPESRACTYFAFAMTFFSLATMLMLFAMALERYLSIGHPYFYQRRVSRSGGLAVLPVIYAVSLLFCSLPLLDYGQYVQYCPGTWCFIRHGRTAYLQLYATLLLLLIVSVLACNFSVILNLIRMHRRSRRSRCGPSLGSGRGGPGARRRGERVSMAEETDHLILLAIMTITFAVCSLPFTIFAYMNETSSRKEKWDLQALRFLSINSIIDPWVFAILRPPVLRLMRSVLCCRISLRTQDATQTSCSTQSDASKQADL

| SMILES | Ki (EP4 receptors) | Ca2+ Signal-EC50 (nM) FP (hFP) | Ca2+ Signal-EC50 (nM) EP4 (hEP4/Gqs5) | Ca2+ Signal-EC50 (nM) TP (hTP) | EC50 (EP2) | BINDING-Ki (nM) EP4 (EP4 receptors) | EC50 (hEP4/Gqs5) | EC50 (hTP; read-out: Ca2+ Signal-EC50 (nM) TP) |
| --- | --- | --- | --- | --- | --- | --- | --- | --- |
| CC(C)(C)CCCC(O)c1ccc([C@@H]2[C@@H](CCCCCCC(=O)O)[C@H](Cl)C[C@H]2O)cc1 (mixture of isomers) [Entry 20, 7-{(1R,2S,3R,5R)-5-Chloro-3-hydroxy-2-[4-(1-hydroxy-5,5-dimethyl-hexyl)-phenyl]-cyclopentyl}-heptanoic acid] | 3800 nM | not active |  | not active | > 10000 nM |  | 10700 nM |  |
| O=C(O)CCCCCC[C@@H]1[C@@H](c2ccc(C(O)Cc3ccccc3)cc2)[C@H](O)C[C@H]1Cl (stereo partly drawn) [Entry 22, 7-{(1 R,2S,3R,5R)-5-Chloro-3-hydroxy-2-[4-(1-hydroxy-2-phenyl-ethyl)-phenyl]-cyclopentyl}-heptanoic acid] | > 10000 nM | not active |  | not active | 59 nM |  | 15800 nM |  |
| CCCCCC(O)c1ccc([C@@H]2[C@@H](C/C=C\CCCC(=O)O)[C@H](Cl)C[C@H]2O)cc1 (mixture of isomers) [Entry 11, (Z)-7-{(1R,2S,3R,5R)-5-Chloro-3-hydroxy-2-[4-(1-hydroxy-hexyl)-phenyl]-cyclopentyl}-hept-5-enoic acid] | > 10000 nM | not active |  | not active | 3 nM |  | > 10000 nM |  |

Second part, the compound after the results:

| Ki (EP4 receptors) | Ca2+ Signal-EC50 (nM) FP (hFP) | Ca2+ Signal-EC50 (nM) EP4 (hEP4/Gqs5) | Ca2+ Signal-EC50 (nM) TP (hTP) | EC50 (EP2) | BINDING-Ki (nM) EP4 (EP4 receptors) | EC50 (hEP4/Gqs5) | EC50 (hTP; read-out: Ca2+ Signal-EC50 (nM) TP) | SMILES |
| --- | --- | --- | --- | --- | --- | --- | --- | --- |
| 2260 nM | not active | not active | not active | 12 nM |  |  |  | CCCCCCC(O)c1ccc([C@@H]2[C@@H](C/C=C\CCCC(=O)O)[C@H](Cl)C[C@H]2O)cc1 (stereo partly drawn) [Entry 25, (Z)-7-{(1R,2S,3R,5R)-5-Chloro-3-hydroxy-2-[4-(1-hydroxy-heptyl)-phenyl]-cyclopentyl}-hept-5-enoic acid] |
|  | not active | not active | not active | 9 nM | not active |  |  | O=C(O)CCC/C=C\C[C@@H]1[C@@H](c2ccc(C(O)c3ccccc3)cc2)[C@H](O)C[C@H]1Cl (stereo partly drawn) [Entry 28, (Z)-7-{(1R,2S,3R,5R)-5-Chloro-3-hydroxy-2-[4-(hydroxy-phenyl-methyl)-phenyl]-cyclopentyl}-hept-5-enoic acid] |
| > 10000 nM | not active | not active |  | 10 nM |  |  | 3750 nM | CCCCC(O)c1cccc([C@@H]2[C@@H](C/C=C\CCCC(=O)O)[C@H](Cl)C[C@H]2O)c1 (stereo partly drawn) [Entry 30, (Z)-7-{(1R,2S,3R,5R)-5-Chloro-3-hydroxy-2-[3-(1-hydroxy-pentyl)-phenyl]-cyclopentyl}-hept-5-enoic acid] |
